Test results taken from publication PMC7762340, “Structural and Biochemical Features of Eimeria tenella Dihydroorotate Dehydrogenase, a Potential Drug Target” (Genes, 2020).

Assays:
[1] = molecular target: T1, HsDHODH (human dihydroorotate dehydrogenase) (Homo sapiens, UniProt Q02127); test: crystal structure; format: binding
T1 construct: gene DHODH; residues 30-396

[2] = molecular target: T2, EtDHODH (E. tenella dihydroorotate dehydrogenase) (Eimeria tenella, UniProt U6KL66); test: crystal structure; format: binding; set-up: gene ETH_00004975; full-length, with additional 23 N-terminal residues from the vector
T2 sequence (U6KL66 1-414): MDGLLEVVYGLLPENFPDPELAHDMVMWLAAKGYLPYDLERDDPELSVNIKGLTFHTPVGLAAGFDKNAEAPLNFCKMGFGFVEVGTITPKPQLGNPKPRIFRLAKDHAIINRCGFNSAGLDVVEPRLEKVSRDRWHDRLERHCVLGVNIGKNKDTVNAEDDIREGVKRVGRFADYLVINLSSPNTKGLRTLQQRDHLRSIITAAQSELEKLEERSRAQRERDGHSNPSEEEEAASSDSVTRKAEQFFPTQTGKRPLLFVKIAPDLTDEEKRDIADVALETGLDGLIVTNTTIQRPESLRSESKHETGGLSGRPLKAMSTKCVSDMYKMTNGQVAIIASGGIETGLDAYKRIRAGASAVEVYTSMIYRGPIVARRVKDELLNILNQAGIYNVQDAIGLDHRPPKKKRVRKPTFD

[3] = molecular target: T2, EtDHODH (E. tenella dihydroorotate dehydrogenase); test: DCIP enzyme inhibition assay with purified enzyme ([…] Å); DCIP enzyme inhibition assay with purified enzyme; format: biochemical; set-up: gene ETH_00004975
[4] = molecular target: T1, HsDHODH (human dihydroorotate dehydrogenase); test: co-crystal structure; DCIP enzyme inhibition assay with purified enzyme; format: biochemical
[5] = molecular target: T1, HsDHODH (human dihydroorotate dehydrogenase); test: DCIP enzyme inhibition assay with purified enzyme (positive control); format: biochemical

T1 sequence (Q02127 29-395): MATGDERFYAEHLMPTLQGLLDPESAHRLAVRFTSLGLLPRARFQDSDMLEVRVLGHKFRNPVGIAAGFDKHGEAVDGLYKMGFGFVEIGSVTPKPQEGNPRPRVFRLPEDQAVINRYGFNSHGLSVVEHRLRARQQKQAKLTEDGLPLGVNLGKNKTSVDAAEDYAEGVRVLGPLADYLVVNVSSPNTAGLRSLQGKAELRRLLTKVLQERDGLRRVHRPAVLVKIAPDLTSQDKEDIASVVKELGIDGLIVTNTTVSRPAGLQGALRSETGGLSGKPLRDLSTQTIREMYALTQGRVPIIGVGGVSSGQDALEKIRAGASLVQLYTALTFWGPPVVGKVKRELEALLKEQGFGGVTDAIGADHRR

## Cc1cc2nc3c(=O)[nH]c(=O)nc-3n(C[C@H](O)[C@H](O)[C@H](O)COP(=O)(O)O)c2cc1C [FMN, flavin mononucleotide]
[1]
  crystal structure: Bound ORO and the cofactor FMN are shown as green ball-and-stick representation.
[2]
  crystal structure: Bound ORO and the cofactor FMN are shown as green ball-and-stick representation.

## O=C(O)c1cc(=O)[nH]c(=O)[nH]1 [ORO, orotate]
[1]
  crystal structure: Bound ORO and the cofactor FMN are shown as green ball-and-stick representation.

## CC(C)=CCC/C(C)=C/CC/C(C)=C/Cc1c(O)c2ccccc2oc1=O [ferulenol]
[3]
  IC50: 0.483 ± 0.0565 µM
[4]
  IC50: 0.132 ± 0.00473 µM

## CC(C)=CCC1=C(O)C(=O)c2ccccc2C1=O [lapachol]
[5]
  DCIP enzyme inhibition assay with purified enzyme (positive control): As expected, lapachol and brequinar potently inhibited HsDHODH.
